Experimental data published in PubChem BioAssay AID1996.
Converted amounts (≈) assume the structure as drawn.

Conditions: buffer; pH 7.4; 200.0 µM

| Compound | solubility kinetic |
| --- | --- |
| Cc1ccccc1NC(=O)NC(C)(C)CC(C)(C)C | 1.3 µg/mL (≈ 4.95 µM) |
| Cc1ccc2[nH]c(C(=O)N3CCCCC3)cc2c1 | 7.6 µg/mL (≈ 31.4 µM) |
| O=C(Nc1cccc(C(=O)O)c1)/C(=C\c1ccco1)NC(=O)c1ccccc1 | 51 µg/mL (≈ 136 µM) |
| Nc1nccc(-c2cccs2)n1 | > 26.6 µg/mL |
| Cc1ccc(-c2nc(NCC3CCCO3)sc2C)cc1 (stereo not drawn) | 24.2 µg/mL (≈ 83.9 µM) |
| Cc1cc(C)cc(NC(=O)CNC(c2ccccc2)c2ccccc2)c1 | 1.1 µg/mL (≈ 3.19 µM) |
| OCCNc1nc(N2CCOCC2)nc(N2CCOCC2)n1 | 44.7 µg/mL (≈ 144 µM) |
| CC(Oc1ccc(Cl)cc1)C(=O)Nc1ccccc1N1CCOCC1 (stereo not drawn) | 10.1 µg/mL (≈ 28 µM) |
| COc1cc2c(cc1OC)C(c1ccc([N+](=O)[O-])cc1)NC(=O)C2 (stereo not drawn) | 45.6 µg/mL (≈ 139 µM) |
| Cn1c(=O)n(C)c2cc(NC(=O)COc3ccc(F)cc3)ccc21 | 40.7 µg/mL (≈ 124 µM) |
| COc1ccc(-c2cnc(N)nc2-c2ccc(OC)cc2)cc1 | 2.8 µg/mL (≈ 9.11 µM) |
| Cc1cc(=O)oc2cc(OCC(=O)N3CCCC3)ccc12 | > 43.1 µg/mL |
| COC(=O)CNc1nc(Cl)nc(N2CCC(C)CC2)n1 | 39.5 µg/mL (≈ 132 µM) |
| COc1ccc(C(=O)/C=C2/C(=O)Nc3ccccc32)cc1OC | 1.2 µg/mL (≈ 3.88 µM) |
| Nc1cc(=O)[nH]c(SCC(=O)Nc2cc(Cl)ccc2Cl)n1 | 3.5 µg/mL (≈ 10.1 µM) |
| O=C(Nc1ccccn1)c1cc2ccccc2cc1O | 0.5 µg/mL (≈ 1.89 µM) |
| CC(C)(C(=O)c1cccnc1)c1cccnc1 | > 33.9 µg/mL |
| N#Cc1ccc(OCC(=O)OCC(=O)c2ccc[nH]2)cc1 | > 42.6 µg/mL |
| CC(=O)Nc1nonc1NC(=O)COc1ccccc1 | > 41.4 µg/mL |
| O=S(=O)(c1ccc2ccccc2c1)N1CCc2ccccc21 | < 0.7 µg/mL |

| Compound | solubility kinetic |
| --- | --- |
| Cc1ccc(-c2nc(C=Nc3cccc(C)c3)c(O)o2)cc1 | 0.7 µg/mL (≈ 2.39 µM) |
| CCn1c(=O)n(CC)c2cc(NC(=O)c3ccccc3Cl)ccc21 | 50.4 µg/mL (≈ 147 µM) |
| COc1cc(C(=O)NCC(=O)OCc2ccc(F)cc2)cc(OC)c1OC | 11.8 µg/mL (≈ 31.3 µM) |
| CC(NC(=O)COC(=O)c1ccc(S(=O)(=O)N2CCOCC2)cc1)c1ccccc1 (stereo not drawn) | 13.2 µg/mL (≈ 30.5 µM) |
| COCCNC(=O)c1cc2cc(Br)cc(Br)c2oc1=O | 1.6 µg/mL (≈ 3.95 µM) |
| COc1ccc(N=C2CCS(=O)(=O)c3sccc32)cc1 | > 46.1 µg/mL |
| O=C1CCC([N+](=O)[O-])C(c2ccccc2C(F)(F)F)N1 (stereo not drawn) | > 43.2 µg/mL |
| COc1ccc(C(CCNCc2ccc(OC(C)C)cc2)C(C)C)cc1 (stereo not drawn) | 49.4 µg/mL (≈ 139 µM) |
| CCOc1ccc(NC(=O)CN2CCc3ccccc3C2)cc1 | 34 µg/mL (≈ 110 µM) |
| Fc1ccccc1NC(=S)NC1CCCC1 | 35.2 µg/mL (≈ 148 µM) |
| Cc1ccc(S(=O)(=O)N(C)CC(=O)N2CCC(C(N)=O)CC2)cc1 | > 53 µg/mL |
| Cc1oncc1C(=O)NC1CCCCC1 | > 31.2 µg/mL |
| COC(=O)c1c(-c2cccc(C)c2)csc1NC(=O)C1CCCO1 (stereo not drawn) | 11.1 µg/mL (≈ 32.1 µM) |
| CCc1ccc(N2CN=c3s/c(=C\c4ccccc4)c(=O)n3C2)cc1 | 8.2 µg/mL (≈ 23.5 µM) |
| N=c1oc2ccc(Cl)cc2cc1C(=O)Nc1ccc(F)cc1 | 1 µg/mL (≈ 3.16 µM) |
| O=C(Nc1ccon1)c1sc2cc(Cl)ccc2c1Cl | < 0.3 µg/mL |
| O=C(O)c1ccc(Nc2ccc(Cl)c(Cl)c2)c([N+](=O)[O-])c1 | > 49.1 µg/mL |
| Cc1ccc(NC(=O)c2ccc3c(c2)NC(=O)CS3)nc1 | 5.3 µg/mL (≈ 17.7 µM) |
| CC(C)NC(=O)c1ccc(CN2CCc3ccccc3C2)cc1 | 2.6 µg/mL (≈ 8.43 µM) |
| COc1ccc(OC)c(NC(=O)COC(=O)CCc2nc3ccccc3c(=O)[nH]2)c1 | > 61.7 µg/mL |

| Compound | solubility kinetic |
| --- | --- |
| Cc1ccc(NC(=O)CC(=O)Nc2ccc(C)c(C)c2)cc1C | < 0.3 µg/mL |
| CCn1c(=O)c(C(=O)NCc2ccc3c(c2)OCO3)c(O)c2ccccc21 | < 0.4 µg/mL |
| COCCNC(=S)N1CCN(Cc2ccc3c(c2)OCO3)CC1 | 47 µg/mL (≈ 139 µM) |
| COC(=O)[C@H](Cc1ccccc1)NC(=O)NCCc1ccccc1F | > 51.7 µg/mL |
| CCN(CC(=O)N1CCOCC1)S(=O)(=O)c1ccccc1 | > 46.9 µg/mL |
| CC(=O)c1c(C)[nH]c(C(=O)Nc2ccc(F)cc2F)c1C | 20.6 µg/mL (≈ 70.5 µM) |
| O=S(=O)(Nc1nc2ccccc2nc1NCC1CCCO1)c1ccccc1 (stereo not drawn) | > 57.7 µg/mL |
| COc1cccc(C(=O)NCCS(=O)(=O)N2CCCC2)c1 | > 46.9 µg/mL |
| Cc1cc(C(=O)OCC(=O)NCCN2C(=O)CSC2=O)ccc1[N+](=O)[O-] | > 57.2 µg/mL |
| CC(CCc1ccc(O)cc1)NCc1ccc(Cl)cc1Cl (stereo not drawn) | > 48.6 µg/mL |
| Cc1cccc(/C(N)=N/OC(=O)c2ccncc2)c1 | 29.1 µg/mL (≈ 114 µM) |
| Cc1ccc(NC(=O)c2cccnc2)c([N+](=O)[O-])c1 | > 38.6 µg/mL |
| O=C(Cn1cncn1)NCCCc1ccccc1 | > 36.6 µg/mL |
| O=C(Nc1ccc(N2CCCC2)cc1)c1cccc(Cl)c1Cl | < 0.4 µg/mL |
| CC(=O)C1=C(C)NC(=O)CC1c1ccc(F)cc1 (stereo not drawn) | > 37.1 µg/mL |
| Cc1cccc(C)c1OCC(O)CN1CCCCC1.Cl (stereo not drawn) | 43.4 µg/mL |
| Cc1ccc(C(=O)NC2CCN(C(=O)Nc3ccccc3)CC2)cc1 | 4.4 µg/mL (≈ 13 µM) |
| COc1ccc(C(=O)OCC(=O)NC2CCCC2)cc1OC | > 46.1 µg/mL |
